{"source": "patent US10696688B2", "about": "“Fused pyrimidines as isoform selective phosphoinositide-3-kinase-alpha inhibitors and process for preparation thereof” (Council of Scientific and Industrial Research, priority 2015, dated 2020)", "key": {"[1]": {"tested_on": "Ehrlich ascites carcinoma (EAC) cells", "assay": "In-vivo activity in Ehrlich solid tumor model", "set-up": "species or system swiss mice", "conditions": "22 at 25 mg/kg i.p., 5-fluorouracil at 22 mg/kg i.p., day 1-9"}, "[2]": {"conditions": "dead/total animals; 22 at 25 mg/kg i.p., 5-fluorouracil at 22 mg/kg i.p., day 1-9"}}}
{"smiles": "O=c1[nH]cc(F)c(=O)[nH]1", "note": "[5-Fluorouracil, reference compound]", "values": [{"measurement": "Day 13 % Tumor Growth Inhibition", "setting": "[1]; day 13, versus saline control", "value": 50.04, "unit": "%"}, {"measurement": "Day 13 Avg. tumor weights", "setting": "[1]; day 13", "value": 929.42, "unit": "mg"}, {"measurement": "Mortality", "setting": "[2]", "value": "0/7"}]}
